In patent publication US8252835B2, “Compounds and methods for treating estrogen receptor-related diseases” (Shenogen Pharma Group Ltd., priority 2006, dated 2012):

Legend:
cell proliferation = details: background, literature; cited from earlier work
ER-α66 = biological target: T1, ER-α66 (Homo sapiens, UniProt P03372); assay: Western blot of ER-α66 expression in MCF7 cells; details: zero to 25 μM, 12 hours, FIG. 9
T1 sequence (P03372 1-595): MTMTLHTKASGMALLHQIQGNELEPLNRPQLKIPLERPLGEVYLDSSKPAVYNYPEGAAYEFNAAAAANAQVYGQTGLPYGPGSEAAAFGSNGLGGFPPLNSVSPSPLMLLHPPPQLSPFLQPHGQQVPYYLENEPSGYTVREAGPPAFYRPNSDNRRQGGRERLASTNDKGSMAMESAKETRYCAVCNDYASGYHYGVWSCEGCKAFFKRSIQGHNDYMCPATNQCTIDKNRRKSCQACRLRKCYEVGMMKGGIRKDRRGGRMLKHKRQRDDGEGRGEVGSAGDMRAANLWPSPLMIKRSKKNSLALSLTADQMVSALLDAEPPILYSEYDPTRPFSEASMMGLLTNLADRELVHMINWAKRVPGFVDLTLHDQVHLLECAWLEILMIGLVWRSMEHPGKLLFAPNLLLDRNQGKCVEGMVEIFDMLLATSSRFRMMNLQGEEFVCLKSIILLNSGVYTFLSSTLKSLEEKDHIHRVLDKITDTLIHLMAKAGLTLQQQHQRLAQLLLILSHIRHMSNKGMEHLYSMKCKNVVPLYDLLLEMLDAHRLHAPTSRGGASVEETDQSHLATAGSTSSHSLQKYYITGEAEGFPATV

MCF7 cells [1] = assay: MCF7 surviving cell count (hemocytometer); details: for numbers of surviving MCF7 cells: 5 μM and up, two weeks, FIG. 5b
ER-α36 = biological target: T2, ER-α36 (Homo sapiens, UniProt P03372); assay: Western blot of ER-α36 expression in MCF7 cells; details: zero to 25 μM, 12 hours, FIG. 9
T2 sequence (P03372 1-310 isoform P03372-4): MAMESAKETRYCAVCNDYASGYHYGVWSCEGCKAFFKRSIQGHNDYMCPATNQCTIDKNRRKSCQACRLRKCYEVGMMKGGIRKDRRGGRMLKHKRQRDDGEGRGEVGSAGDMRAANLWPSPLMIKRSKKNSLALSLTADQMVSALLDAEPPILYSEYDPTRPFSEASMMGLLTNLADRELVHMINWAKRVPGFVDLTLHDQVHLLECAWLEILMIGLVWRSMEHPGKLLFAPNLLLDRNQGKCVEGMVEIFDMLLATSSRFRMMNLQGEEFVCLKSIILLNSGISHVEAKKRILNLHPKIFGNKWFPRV

[2] = tested on: Tamoxifen resistant MCF7 cells (MCF7/TAM); assay: Surviving cell count, Tamoxifen resistant MCF7 cells; details: 10 μM, FIG. 16
H226 Lung Cancer Cells = assay: H226 lung cancer surviving cell count; format: cell-based; details: 10 μM, FIG. 16
ER-α46 = biological target: T3, ER-α46 (Homo sapiens, UniProt P03372); assay: Western blot of ER-α46 expression in MCF7 cells; details: zero to 25 μM, 12 hours, FIG. 9
T3 sequence (P03372 1-422 isoform P03372-3): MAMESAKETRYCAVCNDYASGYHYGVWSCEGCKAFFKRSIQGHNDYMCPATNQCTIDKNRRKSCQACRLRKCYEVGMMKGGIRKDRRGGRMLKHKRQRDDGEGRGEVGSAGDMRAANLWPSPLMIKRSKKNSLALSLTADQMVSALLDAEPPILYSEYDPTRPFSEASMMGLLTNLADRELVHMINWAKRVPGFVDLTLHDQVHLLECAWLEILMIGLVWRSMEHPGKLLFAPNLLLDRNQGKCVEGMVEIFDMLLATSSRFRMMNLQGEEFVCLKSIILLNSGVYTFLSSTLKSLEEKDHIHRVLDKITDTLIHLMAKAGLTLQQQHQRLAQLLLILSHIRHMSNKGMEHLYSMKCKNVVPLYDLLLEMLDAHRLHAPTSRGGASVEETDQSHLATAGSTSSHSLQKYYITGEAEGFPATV

[3] = Asthma attack induced by ovalbumin in guinea pigs; format: in vivo; details: for blood concentration of histamine / concentration of IgE in the blood: ELISA; for blood concentration of histamine: FIG. 19; for concentration of IgE in the blood: FIG. 20; for percentage of oxyphil cells in the blood: control about 9.9%, normal about 5.3%
Protocol: Guinea pigs of 250-300 g were provided by Beijing Haidian Xingwang Animal Farm. The guinea pigs were injected with 1 ml 10% ovalbumin (Sigma Cat. No. A5253) into abdomen once. On the 15th-17th day after the injection, the guinea pigs were given 1% aerosolized ovalbumin for about 20 seconds through nasal spray to induce asthma attack. The latent period before asthma attack calculated from after ovalbumin administration to the time when the guinea pigs collapsed with convulsion was measured.
On the 17th day after injection, the qualified guinea pigs were divided into 3 groups, the high dosage IC-163 group (4 mg/kg/day), the low dosage IC-163 group (1 mg/kg/day) and the control group. Each group consisted of 10 guinea pigs. A normal group consisting of 8 normal guinea pigs which had not been injected with any 10% ovalbumin was also tested. IC-163 was administered to the guinea pigs at 4 mg per kilogram of body weight per day (the high dosage group) or 1 mg per kilogram of body weight per day (the low dosage group) through muscle injection once a day for 6 days while the guinea pigs of the normal group and the control group were injected with saline water. On the 4th and 6th day of administering the drug, the guinea pigs were induced for asthma attack in the same way as above. The latent period before asthma attack was measured. If the latent period lasted longer than 5 minutes, the latent period was recorded as 5 minutes. On the 6th day, blood was drawn from the guinea pigs of the four groups to examine the percentage of oxyphil cells, the concentrations of histamine and IgE in the blood. The percentage of oxyphil cells was measured by counting the number of oxyphil cells in every 200 leukocytes under microscope. The concentrations of histamine and IgE were measured by double-antibody sandwich ELISA (Enzyme Linked Immunosorbent Assay).

PC3 cells = assay: PC3 prostate cancer surviving cell count; format: cell-based; details: 10 μM, FIG. 16
MDA-MB-231 cells = assay: MDA-MB-231 colony formation, crystal violet staining; format: cell-based; details: 10 days, FIG. 4
MCF7 cells [4] = assay: MCF7 colony formation; format: cell-based; details: 10 days, FIG. 5a
[5] = tested on: human endometrial cancer Hec1A cells; assay: MTT assay of Hec1A cell growth; format: cell-based; details: 24 hours
Protocol: Human endometrial cancer Hec1A cells (ATCC No.: HTB-112™) were subseeded in a 96-well culture plate at a concentration of 5×10^3 cells/well and were cultured in DMEM containing high glucose medium (HyClone, SH30022.01B). […] The cells then were incubated with 0.5 mg/ml 3-(4,5-dimethylthiazol-2-yl)-2,5-diphenyltetrazolium bromide (MTT) for 4 hours at 37° C. wherein the MTT was reduced to insoluble purple formazan by the active mitochondrial reductase enzymes in the living cells. Then the excessive liquid MTT was removed from the reaction mixture. 150 μl of DMSO was added to dissolve the purple formazan into a colored solution. The optical density of the colored solution was measured at 490 nm using a microplate reader.

breast cancer cells = details: background, literature (Liu 2005; Wang 2004; Ye 2005); cited from earlier work
[6] = high dosage 4 mg/kg/day, 6th day
[7] = low dosage 1 mg/kg/day, 6th day
[8] = zero to 25 μM, as concentration rose

Q: For COc1ccc(-c2oc3c(CC=C(C)C)c(O[C@@H]4O[C@H](CO)[C@@H](O)[C@H](O)[C@H]4O)cc(O)c3c(=O)c2O[C@@H]2O[C@@H](C)[C@H](O)[C@@H](O)[C@H]2O)cc1 [Icariin], which “effect on cell proliferation in vitro” value (cell proliferation) is on record?
A: no effect

Q: Which results are given for COc1ccc(-c2oc3c(CCC(C)(C)O)c(O)cc(O)c3c(=O)c2O)cc1 [IC 163, 3,5,7-trihydroxy-8-(3-hydroxy-3-methylbutyl)-2-(4-methoxyphenyl)-4H-chromen-4-one]?
A: ER-α66 expression (ER-α66): greatly reduced; numbers of surviving MCF7 cells (MCF7 cells [1]): significantly reduced; numbers of cells (MCF7 cells [1]; 10 μM, FIG. 16): reduced; ER-α36 expression (ER-α36): greatly reduced; numbers of cells [2]: reduced; numbers of cells (H226 Lung Cancer Cells): reduced; ER-α46 expression (ER-α46): greatly reduced; latent period before asthma attack extended in comparison with the control group ([3]; high dosage 4 mg/kg/day muscle injection, 4th day): 72.9%; latent period before asthma attack extended in comparison with the control group ([3]; high dosage 4 mg/kg/day muscle injection, 6th day): 63.5%; blood concentration of histamine [3, 6]: significantly reduce; concentration of IgE in the blood [3, 6]: significantly reduce; percentage of oxyphil cells in the blood [3, 6]: about 8.6%; latent period before asthma attack extended in comparison with the control group ([3]; low dosage 1 mg/kg/day muscle injection, 4th day): 83.4%; latent period before asthma attack extended in comparison with the control group ([3]; low dosage 1 mg/kg/day muscle injection, 6th day): 72.7%; blood concentration of histamine [3, 7]: significantly reduce; concentration of IgE in the blood [3, 7]: significantly reduce; percentage of oxyphil cells in the blood [3, 7]: about 7.8%; numbers of cells (PC3 cells): reduced

Q: Which results are given for CC/C(=C(\c1ccccc1)c1ccc(OCCN(C)C)cc1)c1ccccc1 [Tamoxifen]?
A: numbers of colonies of MDA-MB-231 cells (MDA-MB-231 cells; 5 μM): decreased; numbers of colonies of MDA-MB-231 cells (MDA-MB-231 cells; 10 μM): reduced to near zero; number of colonies of MCF7 cells (MCF7 cells [4]; [8]): significantly reduced; effect on the growth of Hec1A cells ([5]; concentrations below 3 μM): stimulating the growth; optical density at 490 nm (MTT) ([5]; concentrations increased from 0.001 μM to 3 μM, FIG. 21): rose

Q: For CC(C)=CCc1c(O)cc(O)c2c(=O)c(O)c(-c3ccc(O)cc3)oc12 [desmethylicaritin, reference compound], which “proliferation of breast cancer cells” value (breast cancer cells) is on record?
A: significantly increase

Q: Which “numbers of colonies of MDA-MB-231 cells” value (MDA-MB-231 cells; 5 μM) does the source give for O=c1cc(-c2ccc(O)c(O)c2)oc2cc(O)cc(O)c12 [Luteolin] here?
A: decreased

Q: What about the “numbers of colonies of MDA-MB-231 cells” value (MDA-MB-231 cells; 40 μM) of the same molecule?
A: dropped to near zero

Q: And the “number of colonies of MCF7 cells” value (MCF7 cells [4]; [8])?
A: significantly reduced

Q: What does the source list for CC1(C)CCc2c(cc(O)c3c(=O)c(O)c(-c4ccc(O)cc4)oc23)O1 [Y4, 3,5-dihydroxy-2-(4-hydroxyphenyl)-8,8-dimethyl-9,10-dihydro-4H,8H-pyrano[2,3-f]chromen-4-one]?
A: ER-α66 expression (ER-α66): greatly reduced; numbers of surviving MCF7 cells (MCF7 cells [1]): significantly reduced; ER-α36 expression (ER-α36): greatly reduced; ER-α46 expression (ER-α46): greatly reduced

Q: Which “numbers of colonies of MDA-MB-231 cells” value (MDA-MB-231 cells; 5 μM) does the source give for C[C@]12CC[C@@H]3c4ccc(O)cc4C[C@@H](CCCCCCCCC[S+]([O-])CCCC(F)(F)C(F)(F)F)[C@H]3[C@@H]1CC[C@@H]2O (some centres unmarked) [ICI 182,780] here?
A: decreased

Q: And the “numbers of colonies of MDA-MB-231 cells” value (MDA-MB-231 cells; 50 μM)?
A: remained at a high level

Q: What about the “number of colonies of MCF7 cells” value (MCF7 cells [4]; 25 μM) of the same molecule?
A: only a limited decrease
